# Results as given in US7834005B2, “Pyrrolobenzodiazepine derivatives, compositions comprising the same and methods related thereto” (The United States of America as represented by the …, priority 2003, dated 2010).
# Values joined by “and” are separate entries in the source; they are usually repeats but may differ in a detail not shown here. Equal values may be shown once.
# Columns and labels:
# OVCAR-3 (ovarian ca) = assay: in vivo efficacy, OVCAR-3 (ovarian ca) subcutaneous tumor model; parameters: species or system athymic mice; details: OVCAR-3, Early-SC, intravenous
# Method: (§1) NSC 694501 was evaluated for in vivo efficacy in athymic mice bearing 8 subcutaneous tumor models: LOX and UACC-62 (melanoma), OVCAR-3 and OVCAR-5 (ovarian ca), MDA-MB-435 (breastca), SF-295 and C-6 (glioma), and LS-174T (colonca). The models were selected on the basis of hollow fiber assays and in vitro time course assays.
# (§2) A qDx5 schedule conferred better efficacy than a q4Dx3 schedule in each of the 4 models tested on two schedules. NSC 694501 was active over a wide dosage range in athymic mice using compound prepared fresh just prior to injection in 1% EtOH vehicle: On a qDx5 schedule, the maximum tolerated dose was approximately 120 μg/kg/dose and the minimum effective dose in one of the most sensitive models (SF-295) was 16 μg/kg/dose.
# [1] = as above; parameters: species or system athymic mice; details: athymic, mouse, in vivo, OVCAR-3, Early-SC
# Method: as §1, §2
# C-6 (rat glioma) = assay: in vivo efficacy, C-6 (rat glioma) in nude rats; details: i.v.; for BW Loss / Growth Delay % [(T − C)/C] / Optimal % T/C: C-6, Early-SC, nude rats
# LOX (melanoma) = assay: in vivo efficacy, LOX (melanoma) tumor model; parameters: species or system athymic mice; details: intravenous
# Method: as §1, §2
# [2] = in vivo efficacy, LOX (melanoma) tumor model; parameters: species or system athymic mice; details: athymic, mouse, in vivo, intravenous, QD X5, intravenous
# Method: as §1, §2
# [3] = in vivo efficacy, MDA-MB-435 (breastca) subcutaneous tumor model; parameters: species or system athymic mice; details: athymic, mouse, in vivo; MDA-MB-435, Early-SC, Q4D X3, intravenous
# Method: as §1, §2
# MDA-MB-435 (breastca) = assay: as above; parameters: species or system athymic mice; details: MDA-MB-435, Early-SC, Q4D X3, 0.45 mg/kg/dose, intravenous
# Method: as §1, §2
# SF-295 (glioma) = assay: in vivo efficacy, SF-295 (glioma) subcutaneous tumor model; parameters: species or system athymic mice; details: for BW Loss / Growth Delay % [(T − C)/C] / Optimal % T/C / value in parentheses in Growth Delay column / tumor free (tf): SF-295, Early-SC, intravenous
# Method: as §1, §2
# [4] = as above; parameters: species or system athymic mice; details: athymic, mouse, in vivo, SF-295, Early-SC
# Method: as §1, §2
# [5] = in vivo efficacy, summary over 8 subcutaneous tumor models; parameters: species or system athymic mice; details: mouse, in vivo, intravenous; athymic mice, qDx5 schedule, prepared fresh in 1% EtOH vehicle; read-out: maximum tolerated dose
# Method: as §1, §2
# [6] = test system: 8 subcutaneous tumor models; assay: as above; parameters: species or system athymic mice
# Method: as §1, §2
# [7] = test system: LS-174 (human colon cancer); assay: in vivo efficacy, LS-174 (human colon cancer) in nude rats; details: i.v.; for BW Loss / Growth Delay % [(T − C)/C] / Optimal % T/C: LS-174, Early-SC, nude rats
# [8] = Early-SC, QD X5, 0.054 mg/kg/dose
smiles,measurement,setting,value
C=C1C[C@H]2C=Nc3cc(OCCCOc4cc5c(cc4OC)C(=O)N4CC(=C)C[C@H]4C=N5)c(OC)cc3C(=O)N2C1 [NSC 694501],BW Loss,"OVCAR-3 (ovarian ca); Q4D X3, 0.45 mg/kg/dose",6.6% and 13.9%
same,Growth Delay % [(T − C)/C],"OVCAR-3 (ovarian ca); Q4D X3, 0.45 mg/kg/dose",73% and 55%
same,Optimal % T/C,"OVCAR-3 (ovarian ca); Q4D X3, 0.45 mg/kg/dose",20% and 10%
same,BW Loss,"OVCAR-3 (ovarian ca); QD X5, .27 mg/kg/dose",7.9%
same,Growth Delay % [(T − C)/C],"OVCAR-3 (ovarian ca); QD X5, .27 mg/kg/dose",114%
same,Optimal % T/C,"OVCAR-3 (ovarian ca); QD X5, .27 mg/kg/dose",9%
same,value in parentheses in Growth Delay column,"OVCAR-3 (ovarian ca); QD X5, .27 mg/kg/dose",1.9 L
same,MTD at 9 days,"[1]; Q4D X3, intravenous",0.45 mg/kg
same,MTD at 5 days,"[1]; QD X5, intravenous",0.27 mg/kg
same,BW Loss,"C-6 (rat glioma); QD X5, 0.018 mg/kg",0.0%
same,Growth Delay % [(T − C)/C],"C-6 (rat glioma); QD X5, 0.018 mg/kg",13%
same,Optimal % T/C,"C-6 (rat glioma); QD X5, 0.018 mg/kg",56%
same,BW Loss,"C-6 (rat glioma); QD X5, 0.027 mg/kg",6.3%
same,Growth Delay % [(T − C)/C],"C-6 (rat glioma); QD X5, 0.027 mg/kg",20%
same,Optimal % T/C,"C-6 (rat glioma); QD X5, 0.027 mg/kg",47%
same,BW Loss,"C-6 (rat glioma); QD X5, 0.040 mg/kg",0.8%
same,Growth Delay % [(T − C)/C],"C-6 (rat glioma); QD X5, 0.040 mg/kg",49%
same,Optimal % T/C,"C-6 (rat glioma); QD X5, 0.040 mg/kg",24%
same,tolerability and efficacy,"C-6 (rat glioma); nude rats bearing C-6, 27 and 40 μg/kg/dose, qDx5",well tolerated and efficacious
same,BW Loss,LOX (melanoma); [8],17.6%
same,Growth Delay % [(T − C)/C],LOX (melanoma); [8],498%
same,Optimal % T/C,LOX (melanoma); [8],7%
same,value in parentheses in Growth Delay column,LOX (melanoma); [8],4.3 L
same,BW Loss,"LOX (melanoma); IP, QD X5, 0.40 mg/kg/dose",20.7%
same,ILS,"LOX (melanoma); IP, QD X5, 0.40 mg/kg/dose",[−10% ILS]
same,MTD at 5 days,[2]; Early-SC,0.054 mg/kg
same,MTD at 5 days,[2]; IP,0.4 mg/kg
same,MTD at 9 days,[3],0.45 mg/kg
same,BW Loss,MDA-MB-435 (breastca),19.8%
same,Growth Delay % [(T − C)/C],MDA-MB-435 (breastca),41%
same,Optimal % T/C,MDA-MB-435 (breastca),3%
same,tumor free (tf),MDA-MB-435 (breastca),1 tf
same,BW Loss,"SF-295 (glioma); Q4D X3, 0.11 mg/kg/dose",0.1%
same,Growth Delay % [(T − C)/C],"SF-295 (glioma); Q4D X3, 0.11 mg/kg/dose",60%
same,Optimal % T/C,"SF-295 (glioma); Q4D X3, 0.11 mg/kg/dose",10%
same,value in parentheses in Growth Delay column,"SF-295 (glioma); Q4D X3, 0.11 mg/kg/dose",0.0 L
same,BW Loss,"SF-295 (glioma); Q4D X3, 0.16 mg/kg/dose",4.3%
same,Growth Delay % [(T − C)/C],"SF-295 (glioma); Q4D X3, 0.16 mg/kg/dose",103%
same,Optimal % T/C,"SF-295 (glioma); Q4D X3, 0.16 mg/kg/dose",3%
same,value in parentheses in Growth Delay column,"SF-295 (glioma); Q4D X3, 0.16 mg/kg/dose",0.9 L
same,BW Loss,"SF-295 (glioma); Q4D X3, 0.24 mg/kg/dose",10.2%
same,Growth Delay % [(T − C)/C],"SF-295 (glioma); Q4D X3, 0.24 mg/kg/dose",227%
same,Optimal % T/C,"SF-295 (glioma); Q4D X3, 0.24 mg/kg/dose",1 (1 tf) %
same,tumor free (tf),"SF-295 (glioma); Q4D X3, 0.24 mg/kg/dose",1 (1 tf)
same,value in parentheses in Growth Delay column,"SF-295 (glioma); Q4D X3, 0.24 mg/kg/dose",3.2 L
same,BW Loss,"SF-295 (glioma); Q4D X3, <0.30 mg/kg/dose",24.0%
same,tumor free (tf),"SF-295 (glioma); Q4D X3, <0.30 mg/kg/dose, T/C unevaluable",ue (2 tf)
same,BW Loss,"SF-295 (glioma); QD X5, 0.016 mg/kg/dose",0.0%
same,Growth Delay % [(T − C)/C],"SF-295 (glioma); QD X5, 0.016 mg/kg/dose",31%
same,Optimal % T/C,"SF-295 (glioma); QD X5, 0.016 mg/kg/dose",33%
same,BW Loss,"SF-295 (glioma); QD X5, 0.024 mg/kg/dose",3.6%
same,Growth Delay % [(T − C)/C],"SF-295 (glioma); QD X5, 0.024 mg/kg/dose",61%
same,Optimal % T/C,"SF-295 (glioma); QD X5, 0.024 mg/kg/dose",12%
same,BW Loss,"SF-295 (glioma); QD X5, 0.036 mg/kg/dose",3.5%
same,Growth Delay % [(T − C)/C],"SF-295 (glioma); QD X5, 0.036 mg/kg/dose",69%
same,Optimal % T/C,"SF-295 (glioma); QD X5, 0.036 mg/kg/dose",14%
same,BW Loss,"SF-295 (glioma); QD X5, 0.054 mg/kg/dose",4.7% and 2.8%
same,Growth Delay % [(T − C)/C],"SF-295 (glioma); QD X5, 0.054 mg/kg/dose",165% and 206%
same,Optimal % T/C,"SF-295 (glioma); QD X5, 0.054 mg/kg/dose",2% and 0%
same,tumor free (tf),"SF-295 (glioma); QD X5, 0.054 mg/kg/dose",1 tf
same,value in parentheses in Growth Delay column,"SF-295 (glioma); QD X5, 0.054 mg/kg/dose",2.6 L and 3.0 L
same,BW Loss,"SF-295 (glioma); QD X5, 0.08 mg/kg/dose",0.0%
same,Growth Delay % [(T − C)/C],"SF-295 (glioma); QD X5, 0.08 mg/kg/dose",131%
same,Optimal % T/C,"SF-295 (glioma); QD X5, 0.08 mg/kg/dose",3%
same,value in parentheses in Growth Delay column,"SF-295 (glioma); QD X5, 0.08 mg/kg/dose",2.0 L
same,BW Loss,"SF-295 (glioma); QD X5, 0.12 mg/kg/dose",7.5% and 5.3%
same,Growth Delay % [(T − C)/C],"SF-295 (glioma); QD X5, 0.12 mg/kg/dose",241% and 196%
same,Optimal % T/C,"SF-295 (glioma); QD X5, 0.12 mg/kg/dose",4 (4 tf) % and 2 (2 tf) %
same,tumor free (tf),"SF-295 (glioma); QD X5, 0.12 mg/kg/dose",4 (4 tf) and 2 (2 tf)
same,value in parentheses in Growth Delay column,"SF-295 (glioma); QD X5, 0.12 mg/kg/dose",3.1 L and 3.2 L
same,minimum effective dose,"SF-295 (glioma); SF-295, qDx5 schedule, athymic mice",16 μg/kg/dose
same,MTD at 9 days,"[4]; Q4D X3, intravenous",< 0.3 mg/kg
same,MTD at 5 days,"[4]; QD X5, intravenous",0.12 mg/kg
same,MTD at 5 days,[5],~0.12 mg/kg
same,cell kill,[6]; i.v bolus,multi-log cell kill in 4 models
same,growth delays,[6]; i.v bolus,significant growth delays in 7 models
same,activity in tumor models,[6]; i.v bolus drug delivery,active in each of the 8 tumor models
same,BW Loss,"[7]; QD X5, 0.018 mg/kg",0.0%
same,Growth Delay % [(T − C)/C],"[7]; QD X5, 0.018 mg/kg",43%
same,Optimal % T/C,"[7]; QD X5, 0.018 mg/kg",41%
same,BW Loss,"[7]; QD X5, 0.027 mg/kg",2.2%
same,Growth Delay % [(T − C)/C],"[7]; QD X5, 0.027 mg/kg",93%
same,Optimal % T/C,"[7]; QD X5, 0.027 mg/kg",21%
same,BW Loss,"[7]; QD X5, 0.040 mg/kg",1.4%
same,Growth Delay % [(T − C)/C],"[7]; QD X5, 0.040 mg/kg",83%
same,Optimal % T/C,"[7]; QD X5, 0.040 mg/kg",17%
same,tolerability and efficacy,"[7]; nude rats bearing LS-174, 27 and 40 μg/kg/dose, qDx5",well tolerated and efficacious
